Source: patent US6256527A, “Method for determining oxygen concentration” (Nycomed Imaging AS, priority 1995, dated 2001)

Tests used:
Type in all cases: physicochemical
[1] = ESR line widths of nitroxides in degassed benzene
From the text: The ESR-spectral properties of a series of partially and fully deuterated nitroxides (compounds 3b-d) also useful in the method of the invention have been investigated. These radicals are derived from 2,5-di-t-butyl-3,4-dimethoxycarbonyl-pyrryloxyl (Compound 3a) and were investigated alongside Tempone (4-oxo-2,2,6,6-tetramethyl-piperidine-1-oxyl, 1) and CTPO (3-carbamoyl-2,2,5,5-tetramethyl-pyrroline-1-yloxyl, 2a) which are typical examples of nitroxides frequently used for imaging purposes.
Instrumentation. The ESR-spectra were recorded by the Upgrade Version ESP 3220-200SH of a Bruker ER-200D SRC instrument at 22°. The radical concentration was in the range 0.1-0.2 mM and the modulation amplitude was 10 mG. The microwave power was well below saturation. NMR-spectra were recorded on a Varian XL-300 spectrometer. Mass spectra were recorded on a VG Quattor II instrument equipped with ESPC electrospray. GLC analyses were performed on a HP 5830 ser II instrument, equipped with a fused-silica column (30 m, 0.25 μm, HP-1701). TLC analyses and column chromotographic separations were performed on Silica Gel 60, using heptane/ether as the eluent.
Preparation of pyrryloxyl radicals. To a degassed solution of 2 mg of the hydroxylamine 7a-7d in 2 ml of benzene was added ca. 10 mg NiOOH. After 5 min the suspension was filtered and the pale green blue solution was diluted with degassed benzene in order to obtain a solution suitable for ESR.
ESR-measurements. Summarised in Table 5 are the ESR line widths for the nitroxides discussed above. […] Perdeuteration results in a reduction of the line width by a factor of 2.2 for 1 and of 2.5 for 2b. […] The spin density distributions, nitrogen coupling constants and intrinsic line widths for 3d are compared in Table 6 to other nitroxides.

[2] = ESR linewidth of trityl radicals (synthesis examples); settings: singlet
[3] = Overhauser enhancement of trityl radicals (synthesis examples)
[4] = Stability measurements: half life without exclusion of air
[5] = Relaxivity from NMRD profiles in water, plasma and blood; settings: for Relaxivity: water
Protocol: (§1) The following four water soluble, single ESR line trityls were investigated by NMRD, Dynamic Nuclear Polarisation (DNP) and ESR (Examples 1-4).
(§2) The relaxivity and DNP enhancement data were measured in water, plasma and blood at 23° C. and 37° C. The results are set out in Tables 1 and 2.

[6] = DNP (Overhauser) enhancement and DNP-curve relaxivity at infinite concentration and power; settings: for A. (enhancement at infinite concentration and power): water
From the text: The calibration data are generated by determining Overhauser enhancement values for the radical in the selected body fluid, at the selected temperature and at a range of oxygen (and preferably also radical) concentrations. The intrinsic esr relaxation times for the radical can be determined, under the same conditions, using a conventional esr spectrometer equipped with a temperature controller, with oxygen concentration being determined using the method of Ravin et al J. Appl. Physiol. 18:784-790(1964), a method known to produce accurate and reproducible results.
as §1, §2

[7] = Electron spin relaxation rates (radical concentration dependent) from CW ESR spectra and DNP data
Protocol: as §1
Electron spin relaxation rates were measured by analysis of CW ESR spectra and DNP data at 23° C. and 37° C. in water, isotonic saline, plasma and blood for the deuterated hydroxy trityl and in water and isotonic saline for the perdeuterated and symmetric trityl.

[8] = Oxygen sensitivity at 260 MHz by ESR and DNP in water and blood; settings: for Lorentzian line broadening by oxygen: 260 MHz
Protocol: The oxygen sensitivity of the deuterated hydroxy trityl was examined at 260 MHz in water and blood at 23° C. and 37° C. by ESR and DNP. The desired oxygen partial pressures were obtained in a simple shaking tonometer. The sample of 1-2 ml volume was shaken with a water saturated gas mixture flowing slowly above the sample for 5 min. The sample and gas was in a water bath maintaining the temperature. The gas mixtures were of high purity, chemically analysed. The Lorentzian line broadenings are 511 and 369 mG/mMo2 in water at 37° C. and 23° C. respectively and 329 mG/mMo2 in blood at 23° C.

[9] = water (isotonic saline), 23° C.
[10] = water (isotonic saline), 37° C.

CC1(C)CC(=O)CC(C)(C)N1[O] [Compound 1, 4-oxo-2,2,6,6-tetramethyl-piperidine-1-oxyl, reference compound]
ESR Line width ([1]; benzene, 23° C.): 602 mg | reduction of the line width by perdeuteration (factor) ([1]; degassed benzene, 22° C.): 2.2

[2H]C([2H])([2H])C1(C([2H])([2H])[2H])N([O])C(C([2H])([2H])[2H])(C([2H])([2H])[2H])C([2H])([2H])C(=O)C1([2H])[2H] [Compound 1-d16, 4-oxo-2,2,6,6-tetramethyl-piperidine-d16-1-oxyl, reference compound]
ESR Line width ([1]; benzene, 23° C.): 266 mg

CC1(C)C=C(C(=O)O)C(C)(C)N1[O] [Compound 2b, 2,2,5,5-tetramethyl-3-pyrrolin-1-oxyl-3-carboxylic acid, reference compound]
ESR Line width ([1]; benzene, 23° C.): 1032 mg | reduction of the line width by perdeuteration (factor) ([1]; degassed benzene, 22° C.): 2.5

[2H]C1=C(C(=O)O)C(C([2H])([2H])[2H])(C([2H])([2H])[2H])N([O])C1(C([2H])([2H])[2H])C([2H])([2H])[2H] [Compound 2b-d13, 2,2,5,5-tetramethyl-3-pyrrolin-d13-oxyl-3-carboxylic acid, reference compound]
ESR Line width ([1]; benzene, 23° C.): 407 mg

COC(=O)c1c(C(=O)OC)c(C(C)(C)C)n([O])c1C(C)(C)C [Compound 3a, 2,5-di-t-butyl-3,4-dimethoxycarbonyl-pyrryloxyl]
ESR Line width ([1]; benzene, 23° C.): 228 mg

[2H]C([2H])([2H])OC(=O)c1c(C(=O)OC([2H])([2H])[2H])c(C(C)(C)C)n([O])c1C(C)(C)C [Compound 3b]
ESR Line width ([1]; benzene, 23° C.): 172 mg

[2H]C([2H])([2H])C(c1c(C(=O)OC)c(C(=O)OC)c(C(C([2H])([2H])[2H])(C([2H])([2H])[2H])C([2H])([2H])[2H])n1[O])(C([2H])([2H])[2H])C([2H])([2H])[2H] [Compound 3c]
ESR Line width ([1]; benzene, 23° C.): 219 mg | influence of deuteration of the t-butyl groups alone on line width, 3a:3c ([1]; degassed benzene, 22° C.): almost no influence

[2H]C([2H])([2H])OC(=O)c1c(C(=O)OC([2H])([2H])[2H])c(C(C([2H])([2H])[2H])(C([2H])([2H])[2H])C([2H])([2H])[2H])n([O])c1C(C([2H])([2H])[2H])(C([2H])([2H])[2H])C([2H])([2H])[2H] [Compound 3d]
ESR Line width ([1]; benzene, 23° C.): 113 mg | decrease of line width by deuteration of the alkyl groups of the ester moiety, 3c:3d (factor) ([1]; degassed benzene, 22° C.): 1.9 | ESR Line width ([1]; degassed benzene, 22° C., high dilution): 113 mg | nitrogen coupling constant ([1]; in benzene): 4.4 G

CC(C)(C)c1c(C(=O)O)c(C(=O)O)c(C(C)(C)C)n1O [Compound 4, 2.5-di-t-butyl-N-hydroxy-pyrrol-3,4-dicarboxylic acid]
ESR line width compared with 3b ([1]; upon treatment with NiOOH): almost identical to that of 3b

Bis(8-carboxy-2,2,6,6-tetra(hydroxymethyl)benzo[2-d: 4,5-d']bis(1,3)dithiol-4-yl)-mono(8-carboxy-2,2,6,6-tetramethylbenzo[2-d: 4,5-d']-bis(1,3)dioxol-4-yl)) methyl sodium salt [Example 27]
ESR Line width ([2]; 3.4 mM in H2 O, 200 G): 120 mg | Overhauser enhancement ([3]; 3.4 mM in H2 O, 5 W microwave power): 164 | Half life ([4]; in water without exclusion of air): 5 days

Bis(8-ethoxycarbonyl-2,2,6,6-tetra(hydroxymethyl)benzo[1,2-d: 4,5-d']bis(1,3)dithiol-4-yl)-mono(8-ethoxycarbonyl-2,2,6,6-tetramethylbenzo[1,2-d:4,5-d']-bis(1,3)dioxol-4-yl))methyl [Example 26]
ESR Line width ([2]; H2 O, 200 G): 433 mg

Bis-(8-ethoxycarbonyl-2,2,6,6-tetramethylbenzo[1,2-d: 4,5-d']-bis(1,3)dithiole-4-yl)-mono-(8-ethoxycarbonyl-2,2,6,6-tetramethylbenzo[1,2-d:4,5-d']-bis(1,3)dioxol-4-yl)methyl [Example 19]
ESR Line width ([2]; THF, 200 G): 325 mg | Overhauser enhancement ([3]; THF, 2.1 mM, 4 W microwave power): 156 | Half life ([4]; in acetonitrile without exclusion of air): 83.33 days

Bis-(8-potassium carboxylate-2,2,6,6-tetramethylbenzo [1,2-d:4 5-d']-bis(1,3)dithiol-4-yl)-mono-(8-potassium carboxylate-2,2,6,6-tetramethylbenzo[1,2-d:4,5-d']-bis (1,3)dioxol-4-yl)methyl [Example 20]
ESR Line width ([2]; H2 O, 200 G): 105 mg | Overhauser enhancement ([3]; H2 O, 6.9 mM, 0.012 W microwave power): 219

Bis-(8-sodium carboxylate-2,2,6,6-tetrakis-(hydroxy-^2 H2 -methyl)-benzo[1,2-d:4,5-d']-bis(1,3) dithiole-4-yl)-mono-(8-sodium carboxylate-2,2,6,6-tetramethylbenzo [1,2-d:4,5-d']-bis(1,3) dioxole-4-yl)methyl [deuterated hydroxy trityl]
Relaxivity at 400kHz ([5]; blood, 23° C.): 0.53 mM⁻¹ s⁻¹ | Relaxivity at 400kHz ([5]; blood, 37° C.): 0.44 mM⁻¹ s⁻¹ | Relaxivity at 400kHz ([5]; plasma, 23° C.): 0.48 mM⁻¹ s⁻¹ | Relaxivity at 400kHz ([5]; plasma, 37° C.): 0.45 mM⁻¹ s⁻¹ | Relaxivity ([5]; 23° C.): 0.26 mM⁻¹ s⁻¹ | Relaxivity ([5]; 37° C.): 0.20 mM⁻¹ s⁻¹ | T1 i.e. proton relaxivity ([6]; blood sample, 37° C.): 0.44 mM⁻¹ s⁻¹ | maximum Overhauser enhancement (i.e. at infinite VHF power and infinite radical concentration) ([6]; blood sample, 37° C.): 192 | A. (infinite concentration and power), DNP enhancement ([6]; blood, 37° C.): 192 | Relaxivity at infinite concentration and power ([6]; blood, 37° C.): 0.44 mM⁻¹ s⁻¹ | A. (infinite concentration and power), DNP enhancement ([6]; plasma, 37° C.): 231 | Relaxivity at infinite concentration and power ([6]; plasma, 37° C.): 0.32 mM⁻¹ s⁻¹ | A. (enhancement at infinite concentration and power) [6]: 278 | 2(3γe T1e)^-1, concentration dependent relaxation rate (peak-to-peak) ([7]; blood, 37° C.): 3.6 ± 0.5 mg/mM | 2(3γe T2e)^-1, concentration dependent relaxation rate (peak-to-peak) ([7]; blood, 37° C.): 21.5 ± 0.5 mg/mM | 2(3γe T1e)^-1, concentration dependent relaxation rate (peak-to-peak) ([7]; plasma, 37° C.): 2.7 ± 0.5 mg/mM | 2(3γe T2e)^-1, concentration dependent relaxation rate (peak-to-peak) ([7]; plasma, 37° C.): 9.8 ± 0.5 mg/mM | 2(3γe T1e)^-1, concentration dependent relaxation rate (peak-to-peak) [7, 9]: 2.6 ± 0.1 mg/mM | 2(3γe T2e)^-1, concentration dependent relaxation rate (peak-to-peak) [7, 9]: 11.1 ± 0.5 mg/mM | 2(3γe T1e)^-1, concentration dependent relaxation rate (peak-to-peak) [7, 10]: 2.8 ± 0.2 mg/mM | 2(3γe T2e)^-1, concentration dependent relaxation rate (peak-to-peak) [7, 10]: 8.0 ± 0.2 mg/mM | 2(3γe T1e)^-1, relaxation rate as a function of oxygen concentration (peak-to-peak) ([8]; blood, 23° C.): 250 mg/mM | 2(3γe T2e)^-1, relaxation rate as a function of oxygen concentration (peak-to-peak) ([8]; blood, 23° C.): 329 mg/mM | (γe T1e +L T2e)^-1, square root of slope of the inverse DNP curve: constant term ([8]; blood, 23° C.): 12.9 mg/mM | Lorentzian line broadening by oxygen ([8]; blood, 23° C.): 329 mG/mMo2 | 2(3γe T1e)^-1, relaxation rate as a function of oxygen concentration (peak-to-peak) ([8]; blood, 37° C.): 330 mg/mM | 2(3γe T2e)^-1, relaxation rate as a function of oxygen concentration (peak-to-peak) ([8]; blood, 37° C.): 428 mg/mM | (γe T1e +L T2e)^-1, square root of slope of the inverse DNP curve: constant term ([8]; blood, 37° C.): 15.0 mg/mM | 2(3γe T1e)^-1, relaxation rate as a function of oxygen concentration (peak-to-peak) ([8]; water, 23° C.): 301 mg/mM | 2(3γe T2e)^-1, relaxation rate as a function of oxygen concentration (peak-to-peak) ([8]; water, 23° C.): 369 mg/mM | (γe T1e +L T2e)^-1, square root of slope of the inverse DNP curve: constant term ([8]; water, 23° C.): 13.4 mg/mM | Lorentzian line broadening by oxygen ([8]; water, 23° C.): 369 mG/mMo2 | 2(3γe T1e)^-1, relaxation rate as a function of oxygen concentration (peak-to-peak) ([8]; water, 37° C.): 398 mg/mM | 2(3γe T2e)^-1, relaxation rate as a function of oxygen concentration (peak-to-peak) ([8]; water, 37° C.): 511 mg/mM | (γe T1e +L T2e)^-1, square root of slope of the inverse DNP curve: constant term ([8]; water, 37° C.): 14.2 mg/mM | Lorentzian line broadening by oxygen ([8]; water, 37° C.): 511 mG/mMo2

Tris(8-carboxy-2,2,6,6-tetrahydroxymethylbenzo[1,2-d: 4,5-d']bis(1,3)dithiole-4-yl)methyl sodium salt [Example 14]
ESR Line width ([2]; 1.5 mM in H2 O, 100 G): 100 mg

Tris-(8-sodium carboxylate-2,2,6,6-tetrakis-(^2 H3 -methyl)-benzo[1,2-d:4,5-d']-bis(1,3) dithiole)methyl [symmetric trityl]
Relaxivity ([5]; 23° C.): 0.21 mM⁻¹ s⁻¹ | Relaxivity ([5]; 37° C.): 0.15 mM⁻¹ s⁻¹ | A. (enhancement at infinite concentration and power) [6]: 266 | 2(3γe T1e)^-1, concentration dependent relaxation rate (peak-to-peak) [7, 9]: 13.2 ± 0.5 mg/mM | 2(3γe T2e)^-1, concentration dependent relaxation rate (peak-to-peak) [7, 9]: 35.4 ± 0.6 mg/mM | 2(3γe T1e)^-1, concentration dependent relaxation rate (peak-to-peak) [7, 10]: 17.7 ± 0.8 mg/mM | 2(3γe T2e)^-1, concentration dependent relaxation rate (peak-to-peak) [7, 10]: 33.1 ± 0.3 mg/mM
